Data as given in EP0722725A1, “VASCULAR SMOOTH MUSCLE CELL MIGRATION INHIBITOR” (TEIJIN LIMITED, priority 1994, dated 1996).

Legend:
[1] = Acute toxicity; assay type: in vivo; settings: no method, species or dose given
[2] = test system: vascular smooth muscle cell derived from a human normal aorta; assay: Measurement of the inhibition activity on cell migration (PDGF-mediated, Transwell Chamber); assay type: cell-based; settings: concentration of 10^-7M; migration mediated by human PDGF 10 ng/ml, 6 hours; compared with the cell migration counts where no test compound was added; read-out: inhibition activities on cell migration
Description: A Transwell Chamber (Costar Co., registered trademark) was used to measure the inhibitory activity. The chamber is divided into a lower and a upper chamber with an 8-µm pore size membrane filter (PVP-free polycarbonate filter, Nucleopore Co., registered trademark), and the filter was pretreated on its lower surface with 5 µg of rat tail collagen type 1 (Becton Dickinson Co.). To the upper chamber was added 100 µl of a 1.5 x 10^6/ml suspension of cells in a mixed solution of DMEM (supplied by Flow Laboratories Co.) and 0.1% BSA (supplied by Nakarai Tesque Co.), and a solution of human PDGF (supplied by Becton Dickinson Co.), which is prepared by diluting with the same mixed solution to giving the final concentration of 10 ng/ml, is filled in the lower chamber (600 µl). […] After the chamber was allowed to stand under 5%-CO2 atmosphere at 37°C For 6 hours, the filter was taken out. […] After cells adhered on the upper surface of the filter were removed with a cotton swab, the cells migrated to the lower surface were counted under a high-magnifying-power microscope (x200, x400) in terms of cell nuclei. Usually, five fields were counted per filter. Cell migration was expressed by the average cell count of the five fields ± the standard deviation. The significant difference was examined by Student's two-tailed t-test.

CCCC[C@H](C)C[C@H](O)/C=C/[C@@H]1[C@H]2CC(CCc3ccc(C(=O)OC)cc3)=C[C@H]2C[C@H]1O [compound 5e]
acute toxicity [1]: neither of the compounds 5e and 6b had problem with acute toxicity | inhibition at 0.1 µM [2]: 13.9%
